In US4689326A, “Process for controlling hyperlipidemia” (Research Corporation, priority 1985, dated 1987):
Like-named read-outs stand apart in the source and are kept apart here.

Legend:
Type in all cases: in vivo, CF1 male mice
serum triglycerides [1] = assay: Hypolipidemic Activity of Compounds 1 and 10-33, Example 13: serum triglycerides; conditions: Mus musculus, 384 h; 20 mg/kg/day ip, day 16, ± SD; read-out: Serum Triglyceride as a function of control, 16 Day
Experimental: (§1) Compounds 1 and 10-33, identified below in Table 11, were suspended by homogenation in a 1% aqueous solution of carboxymethylcellulose (CMC) such that a 0.2 ml dosage supplied a concentration of 20 mg/kg of the active compounds. The suspending agent, the 1% aqueous solution of CMC, was utilized as a control, applied in the same quantity, 0.2 ml. CF1 male mice, maintained in groups of six, were fed Wayne Blox [trademark] laboratory animal show ad libitum with water. The mice, which each weighed approximately 25 g, were administered the drugs interperitoneally at approximately the same time. On days 9 and 16 approximately […] of blood was taken from each of the animals by tail bleeding. After centrifugation to obtain serum, 25 microliter samples were assayed for total cholesterol utilizing the method of Ness et al. Serum triglyicerides were assayed, using a commercially available BioDynamics/bmc triglyiceride kit, on blood collected on the 16th day. By comparison to standards the milligram percent of cholesterol and milligram per deciliter concentration of triglicerides were calculated. Treated values were expressed as a percent of the level of the control animals plus or minus the standard deviation. The "T" values were obtained using the Student's "t" test.

serum cholesterol [2] = assay: Hypolipidemic Activity of Compounds 1 and 10-33, Example 13: serum cholesterol; conditions: Mus musculus, 20 mg/kg/day ip
Experimental: as §1

serum triglycerides [3] = assay: Testing of Normal Mice: serum triglycerides (BioDynamics kit), Example 7; conditions: Mus musculus, 384 h; 150 mg/kg/day ip, day 16, ± SD
Experimental: (§2) Suspensions of Compounds Nos. 1-9 were prepared wherein the compounds were suspended in an aqueous 1% carboxymethylcelluose solution, homogenized and administered to CF1 male mice, each weighing approximately 25 grams, intraperitoneally on a daily basis for 16 days. The dosage was, with the exception of one compound, 20 milligrams of the active compound per kilogram of mouse weight per day. On days 9 and 16 blood was obtained by tail vein bleeding. The blood serum was separated by centrifugation for three minutes. Serum cholesterol levels were determined by a modification of the Liebermann-Burchard reaction. Serum was also collected on day 16 and the triglycerides content was determined by a commercial kit, BioDynamics/bnc Single Vile Colorimetric Method 348201. Each compound was tested on a group of six mice.
(§3) In addition to the above-described treated mice, untreated control groups of six mice were similarly tested on days 9 and 14 or 16 to determine their serum cholesterol and triglycerides blood levels. Table 5 reports the percent control, based on the serum cholesterol and serum triglyceride levels of the treated mice compared to the untreated controls. Table 5 also includes the standard deviation indicating the level of confidence of these numbers.
(§4) Example 7 was repeated substituting clofibrate, a compound used in the prior art to lower serum cholesterol and serum triglyceride levels. The clofibrate was administered as a suspension in an aqueous 1% solution of carboxymethylcellulose. However, unlike the compounds of the present invention which were administered at a dosage of 20 mg/kg day, ip, this compound was administered at the elevated concentration of 150 mg/kg day, ip.

serum cholesterol [4] = assay: Testing of Normal Mice: serum cholesterol (modified Liebermann-Burchard), Example 7; conditions: Mus musculus, 150 mg/kg/day ip
Experimental: as §2, §3, §4

[5] = 216 h, day 9, ± SD, read-out: Serum Cholesterol as a function of control, 9 Day
[6] = 384 h, day 16, ± SD, read-out: Serum Cholesterol as a function of control, 16 Day

`COc1ccccc1-n1c(=O)c2ccccc2c2ccccc2c1=O` [Compound 19, N-(2-methoxy)-phenyldiphenimide] gave a response vs control in vivo at 20 mg/kg (serum triglycerides [1]) of 68 ± 5%, a response vs control in vivo at 20 mg/kg (serum cholesterol [2]; [5]) of 80 ± 8% and a response vs control in vivo at 20 mg/kg (serum cholesterol [2]; [6]) of 67 ± 5%.
`COc1cccc(-n2c(=O)c3ccccc3c3ccccc3c2=O)c1` [Compound 20, N-(3-methoxy)phenyldiphenimide] showed a response vs control in vivo at 20 mg/kg (serum triglycerides [1]) of 72 ± 8%, a response vs control in vivo at 20 mg/kg (serum cholesterol [2]; [5]) of 84 ± 7% and a response vs control in vivo at 20 mg/kg (serum cholesterol [2]; [6]) of 74 ± 7%.
`COc1ccc(-n2c(=O)c3ccccc3c3ccccc3c2=O)cc1` [Compound 21, N-(4-methoxy)-phenyldiphenimide] showed a response vs control in vivo at 20 mg/kg (serum triglycerides [1]) of 74 ± 6%, a response vs control in vivo at 20 mg/kg (serum cholesterol [2]; [5]) of 91 ± 7% and a response vs control in vivo at 20 mg/kg (serum cholesterol [2]; [6]) of 84 ± 8%.
`Cc1ccccc1-n1c(=O)c2ccccc2c2ccccc2c1=O` [Compound 22, N-(2-methyl)-phenyldiphenimide] was tested, and the response vs control in vivo at 20 mg/kg (serum triglycerides [1]) was 65 ± 6%, the response vs control in vivo at 20 mg/kg (serum cholesterol [2]; [5]) was 78 ± 7% and the response vs control in vivo at 20 mg/kg (serum cholesterol [2]; [6]) was 61 ± 6%.
For `Cc1cccc(-n2c(=O)c3ccccc3c3ccccc3c2=O)c1` [Compound 23, N-(3-methyl)-phenyldiphenimide], the response vs control in vivo at 20 mg/kg (serum triglycerides [1]) was 63 ± 6%, the response vs control in vivo at 20 mg/kg (serum cholesterol [2]; [5]) was 78 ± 7% and the response vs control in vivo at 20 mg/kg (serum cholesterol [2]; [6]) was 76 ± 7%.
`Cc1ccc(-n2c(=O)c3ccccc3c3ccccc3c2=O)cc1` [Compound 24, N-(4-methyl)-phenyldiphenimide] showed a response vs control in vivo at 20 mg/kg (serum triglycerides [1]) of 60 ± 7%, a response vs control in vivo at 20 mg/kg (serum cholesterol [2]; [5]) of 57 ± 7% and a response vs control in vivo at 20 mg/kg (serum cholesterol [2]; [6]) of 52 ± 6%.
`CCc1ccccc1-n1c(=O)c2ccccc2c2ccccc2c1=O` [Compound 25, N-(2-ethyl)phenyldiphenimide] gave a response vs control in vivo at 20 mg/kg (serum triglycerides [1]) of 84 ± 7%, a response vs control in vivo at 20 mg/kg (serum cholesterol [2]; [5]) of 82 ± 8% and a response vs control in vivo at 20 mg/kg (serum cholesterol [2]; [6]) of 73 ± 6%.
For `CCc1cccc(-n2c(=O)c3ccccc3c3ccccc3c2=O)c1` [Compound 26, N-(3-ethyl)-phenyldiphenimide], the response vs control in vivo at 20 mg/kg (serum triglycerides [1]) was 66 ± 6%, the response vs control in vivo at 20 mg/kg (serum cholesterol [2]; [5]) was 95 ± 7% and the response vs control in vivo at 20 mg/kg (serum cholesterol [2]; [6]) was 77 ± 7%.
`CCc1ccc(-n2c(=O)c3ccccc3c3ccccc3c2=O)cc1` [Compound 27, N-(4-ethyl)-phenyldiphenimide] gave a response vs control in vivo at 20 mg/kg (serum triglycerides [1]) of 70 ± 7%, a response vs control in vivo at 20 mg/kg (serum cholesterol [2]; [5]) of 101 ± 8% and a response vs control in vivo at 20 mg/kg (serum cholesterol [2]; [6]) of 71 ± 5%.
In the case of `O=c1c2ccccc2c2ccccc2c(=O)n1-c1ccccc1Cl` [Compound 28, N-(2-chloro)-phenyldiphenimide], the response vs control in vivo at 20 mg/kg (serum triglycerides [1]) is reported as 65 ± 6%, the response vs control in vivo at 20 mg/kg (serum cholesterol [2]; [5]) is reported as 67 ± 6% and the response vs control in vivo at 20 mg/kg (serum cholesterol [2]; [6]) is reported as 64 ± 5%.
Compound `O=c1c2ccccc2c2ccccc2c(=O)n1-c1cccc(Cl)c1` [Compound 29, N-(3-chloro)-phenyldiphenimide] has a response vs control in vivo at 20 mg/kg (serum triglycerides [1]) of 87 ± 7%, a response vs control in vivo at 20 mg/kg (serum cholesterol [2]; [5]) of 81 ± 8% and a response vs control in vivo at 20 mg/kg (serum cholesterol [2]; [6]) of 78 ± 8%.
For `O=c1c2ccccc2c2ccccc2c(=O)n1-c1ccc(Cl)cc1` [Compound 30, N-(4-chloro)phenyldiphenimide], the response vs control in vivo at 20 mg/kg (serum triglycerides [1]) was 64 ± 4%, the response vs control in vivo at 20 mg/kg (serum cholesterol [2]; [5]) was 74 ± 6% and the response vs control in vivo at 20 mg/kg (serum cholesterol [2]; [6]) was 67 ± 5%.
`CC(=O)c1ccccc1-n1c(=O)c2ccccc2c2ccccc2c1=O` [Compound 31, N-(2-acetyl)-phenyldiphenimide] was tested, and the response vs control in vivo at 20 mg/kg (serum triglycerides [1]) was 58 ± 6%, the response vs control in vivo at 20 mg/kg (serum cholesterol [2]; [5]) was 79 ± 7% and the response vs control in vivo at 20 mg/kg (serum cholesterol [2]; [6]) was 76 ± 6%.
`CC(=O)c1cccc(-n2c(=O)c3ccccc3c3ccccc3c2=O)c1` [Compound 32, N-(3-acetyl)-phenyldiphenimide] gave a response vs control in vivo at 20 mg/kg (serum triglycerides [1]) of 58 ± 4%, a response vs control in vivo at 20 mg/kg (serum cholesterol [2]; [5]) of 77 ± 8% and a response vs control in vivo at 20 mg/kg (serum cholesterol [2]; [6]) of 68 ± 6%.
Work on `CC(=O)c1ccc(-n2c(=O)c3ccccc3c3ccccc3c2=O)cc1` [Compound 33, N-(4-acetyl)-diphenimide] yielded a response vs control in vivo at 20 mg/kg (serum triglycerides [1]) of 70 ± 5%, a response vs control in vivo at 20 mg/kg (serum cholesterol [2]; [5]) of 80 ± 5% and a response vs control in vivo at 20 mg/kg (serum cholesterol [2]; [6]) of 73 ± 5%.
`CCOC(=O)C(C)(C)Oc1ccc(Cl)cc1` [Compound C2, clofibrate, reference compound] was tested, and the response vs control in vivo at 150 mg/kg (serum triglycerides [3]) was 75 ± 5%, the response vs control in vivo at 150 mg/kg (serum cholesterol [4]; 216 h, day 9, ± SD, read-out: Serum Cholesterol Control, % Day 9) was 88 ± 7% and the response vs control in vivo at 150 mg/kg (serum cholesterol [4]; 384 h, day 16, ± SD, read-out: Serum Cholesterol Control, % Day 16) was 87 ± 5%.
